Measured values as given in ChEMBL document CHEMBL4673296 (J Med Chem, 2020).
Active and inactive are the calls of the source. No cut-off for these calls is given here.

Assays:
[1] = molecular target: T1, Serine/threonine-protein kinase ULK1 (Homo sapiens) (UniProt O75385); assay: Binding affinity to recombinant human ULK1 assessed as change in melting temperature at 10 uM by thermal shift assay
T1 sequence (whole entry): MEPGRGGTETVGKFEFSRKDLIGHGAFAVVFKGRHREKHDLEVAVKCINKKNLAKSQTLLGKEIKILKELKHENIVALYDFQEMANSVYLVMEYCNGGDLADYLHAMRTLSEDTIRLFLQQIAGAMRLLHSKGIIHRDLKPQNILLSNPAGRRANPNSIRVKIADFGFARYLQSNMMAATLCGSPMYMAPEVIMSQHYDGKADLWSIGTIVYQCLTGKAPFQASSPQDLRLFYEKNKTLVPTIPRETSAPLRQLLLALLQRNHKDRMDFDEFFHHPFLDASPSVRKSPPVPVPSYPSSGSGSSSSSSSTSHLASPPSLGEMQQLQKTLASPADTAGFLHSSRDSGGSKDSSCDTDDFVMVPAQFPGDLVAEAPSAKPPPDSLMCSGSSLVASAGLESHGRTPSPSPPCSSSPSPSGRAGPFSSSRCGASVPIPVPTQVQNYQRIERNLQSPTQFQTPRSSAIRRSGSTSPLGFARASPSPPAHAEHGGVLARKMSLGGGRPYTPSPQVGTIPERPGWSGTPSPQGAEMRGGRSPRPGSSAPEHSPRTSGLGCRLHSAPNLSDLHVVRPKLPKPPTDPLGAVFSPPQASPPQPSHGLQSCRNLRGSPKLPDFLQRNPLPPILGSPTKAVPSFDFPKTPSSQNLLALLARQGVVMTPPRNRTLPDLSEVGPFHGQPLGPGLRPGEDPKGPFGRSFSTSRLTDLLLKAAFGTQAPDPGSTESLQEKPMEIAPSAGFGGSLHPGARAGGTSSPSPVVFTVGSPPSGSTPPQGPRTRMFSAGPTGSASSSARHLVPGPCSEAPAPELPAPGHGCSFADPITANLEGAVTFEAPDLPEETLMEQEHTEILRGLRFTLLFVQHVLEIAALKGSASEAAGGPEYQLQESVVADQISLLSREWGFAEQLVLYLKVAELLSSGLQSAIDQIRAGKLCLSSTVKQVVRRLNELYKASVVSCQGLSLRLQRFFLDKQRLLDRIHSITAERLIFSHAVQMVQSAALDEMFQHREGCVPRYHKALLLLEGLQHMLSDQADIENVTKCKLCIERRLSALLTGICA

[2] = Apparent permeability of the compound across basolateral side to apical side in human Caco2 cells; type: ADME, cell-based; details: Caco-2
[3] = AUC (0 to t) in C57BL/6J mouse at 30 mg/kg, po measured upto 24 hrs by LC-MS/MS analysis; type: ADME, organism-based; design: dose 30 mg/kg, time <=24; details: in vivo
Mus musculus = assay: Ex vivo inhibition of ULK1 in liver lysate of C57BL/6J mouse assessed as decrease in pATG13 (Ser318) levels at 10 mg/kg, po measured after 2 hrs by Western blot analysis; type: functional, organism-based
MDA-MB-468 = assay: Induction of apoptosis in human MDA-MB-468 cells assessed as viable cells at 10 uM measured after 18 hrs in low-glucose, amino acid-free Earles balanced salt solution (EBSS) media by AnnexinV/7-AAD staining based flow cytometric analysis (reference value: 86.6%); type: functional; details: read-out: Activity

SMILES: COc1ccc(Nc2ncc(C(F)(F)F)c(NC3CC3)n2)cc1OC
- ΔTm [1]: 8.3 °C
- Papp B→A [2]: > 10 ×10⁻⁶ cm/s
- AUC(0-t) at 24 h [3]: 2.3 µM·h
- inhibition (Mus musculus): Active
- viability at 10 µM (MDA-MB-468): 38.6%
